The results in this text go back to the supplement of paper PMC6206229.

Values after ≈ are worked out from the molar mass of the structure shown.

In assay [1] the test system is Staphylococcus aureus ATCC 700699 (MRSA). Kind of assay: minimum inhibitory concentration; extreme values may be limits of the assay. The essentials:
(§1)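 Methicillin-susceptible and methicillin-resistant Staphylococcus aureus were assessed by broth microdilution with a resazurin read-out, compounds spanning 0 to 100 µM and incubated for 24 h at 37°C before 30 µl of 0.015% resazurin was added for 2–4 h. For the minimum inhibitory concentration, the lowest concentration whose well stayed blue rather than pink was recorded.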

For assay [2], the system named is Staphylococcus aureus ATCC 29213 (MSSA). Described as above. The gist of the method: as §1

With `CC1(C)Cc2c(c(N3CCOCC3)nc3snc(Br)c23)CO1`, the minimum inhibitory concentration in assay [1] and in assay [2] was over 50 µM throughout.

Take `CC(C)(C)c1cc(C(=O)N2CCN(c3nccnc3C#N)CC2)n(Cc2ccccc2)n1`: the minimum inhibitory concentration in assay [1] and in assay [2] was over 50 µM in each case.

Take `CO[C@@H]1CN(c2ccc(C#CC3(O)CN4CCC3CC4)c(Cc3ccccc3)n2)C[C@H]1O` (stereo partly specified): the minimum inhibitory concentration in assay [1] and in assay [2] was over 50 µM each time.

Regarding `NC(=O)c1cc(Br)ccc1OCCOc1ccccc1`, the minimum inhibitory concentration in assay [1] and in assay [2] was over 50 µM throughout.

As to `COc1ccc(S(=O)(=O)Nc2ccc(CN3CCN(C(=O)c4cccc(C#N)c4)CC3)cc2)cc1`, the minimum inhibitory concentration in assay [1] and in assay [2] was over 50 µM each time.

With `O=C(NC1CC1)c1ccc(N2CCOc3ccc(Cl)cc32)s1`, the minimum inhibitory concentration in assay [1] and in assay [2] was over 50 µM throughout.

`O=C1[C@@H](Oc2ccccc2)[C@@H](c2ccc(Cl)cc2)N1CCn1cnc2c(NCc3ccccc3)ncnc21`: the minimum inhibitory concentration in assay [1] and in assay [2] was over 50 µM each time.

For the compound `CS(=O)(=O)N1CCC(CCn2nc(Cc3cccc4ccccc34)c3c(N)ncnc32)CC1`, the minimum inhibitory concentration in assay [1] and in assay [2] was over 50 µM in each case.

Consider `Cc1cc(Cl)ccc1NC(=O)CCc1ccc(S(=O)(=O)NCC(C)C)cc1`, for which the minimum inhibitory concentration in assay [1] and in assay [2] was over 50 µM throughout.

Consider `CCC(NC(=O)c1ccccc1NC(=O)c1ccc(C)cc1)C(=O)OC` (stereo unspecified), for which the minimum inhibitory concentration in assay [1] and in assay [2] was over 50 µM each time.

`CC(C)(C)C(=O)N(CCCCCCN1C[C@H](O)[C@@H](O)[C@H](O)[C@H]1CO)C1CCCCCC1`: the minimum inhibitory concentration in assay [1] and in assay [2] was over 50 µM throughout.

Take `COc1cccn2c(C(=O)N3CCCCC3)c(C(F)(F)F)nc12`: the minimum inhibitory concentration in assay [1] and in assay [2] was over 50 µM in each case.

Take `Nc1nc2cc(-c3cncc(Oc4ccc(F)cc4)c3)ccc2[nH]1`: the minimum inhibitory concentration in assay [1] and in assay [2] was 50 µM (≈ 16 µg/mL) throughout.

`CC(C)(C)OC(=O)N1CCN(c2nccc(-c3ccc(-c4ccc(Cl)cc4)s3)n2)CC1`: the minimum inhibitory concentration in assay [1] and in assay [2] was over 50 µM throughout.

`CNC1C(OC2C(OC3C(O)C(O)C(N=C(N)N)C(O)C3N=C(N)N)OC(C)C2(O)C=O)OC(CO)C(O)C1O` (stereo unspecified): the minimum inhibitory concentration in assay [1] and in assay [2] was over 50 µM each time.

Take `Cc1nn2c(=O)c3c([nH]c2c1-c1ccc(Cl)cc1)CCCC3`: the minimum inhibitory concentration in assay [1] and in assay [2] was over 50 µM each time.

As to `CCS(=O)(=O)N(Cc1ccco1)Cc1cc2ccc(C)cc2nc1O`, the minimum inhibitory concentration in assay [1] and in assay [2] was over 50 µM in each case.

For the compound `Cc1ccc(-c2cc(C(=O)Nc3cccnc3)c3cc(Br)ccc3n2)cc1`, the minimum inhibitory concentration in assay [1] and in assay [2] was 50 µM (≈ 20.9 µg/mL) throughout.

Consider `O=C(Nc1ccc(N2CCNCC2)nc1)c1oc(-c2ccccc2)nc1C(F)(F)F`, for which the minimum inhibitory concentration in assay [1] and in assay [2] was over 50 µM throughout.

For `CCOC(=O)c1cc(-c2csc(Nc3c(C)cc(C)cc3C)n2)on1`, the minimum inhibitory concentration in assay [1] and in assay [2] was over 50 µM throughout.

As to `CC(C)=CCC/C(C)=C/CNCCNC1C2CC3CC(C2)CC1C3` (stereo unspecified), the minimum inhibitory concentration in assay [1] and in assay [2] was 50 µM (≈ 16.5 µg/mL) throughout.

For `CCCc1ccc(S(=O)(=O)Nc2ccc(CN3CCN(CC4CC4)CC3)cc2)cc1`, the minimum inhibitory concentration in assay [1] and in assay [2] was over 50 µM throughout.

On to `CCC(=O)Nc1ccccc1C(=O)Nc1ccccn1`, for which the minimum inhibitory concentration in assay [1] and in assay [2] was over 50 µM in each case.

For `COc1cccc(-n2nnnc2S(=O)(=O)Cc2ccccc2)c1`, the minimum inhibitory concentration in assay [1] and in assay [2] was 50 µM (≈ 16.5 µg/mL) in each case.

Turning to `COC(=O)c1cccc2oc(-c3cccc(OC)c3NC(=O)c3cc(-c4ccccc4)on3)nc12`, the minimum inhibitory concentration in assay [1] and in assay [2] was over 50 µM each time.

`CN1CCN(S(=O)(=O)c2ccc(-c3ccc4c(Nc5ncc(Cl)cn5)ccnc4c3)cc2)CC1`: the minimum inhibitory concentration in assay [1] and in assay [2] was over 50 µM in each case.

As for `CN1CCCC1CCO[C@](C)(c1ccccc1)c1ccc(Cl)cc1` (stereo partly specified), the minimum inhibitory concentration in assay [1] is 50 µM (≈ 17.2 µg/mL); in assay [2] it was over 50 µM.

On to `COc1cccc2c(C)nc(N=C(N)N)nc12`, for which the minimum inhibitory concentration in assay [1] and in assay [2] was over 50 µM each time.

In the case of `Cc1[nH]c2cc(F)cc(F)c2c(=O)c1-c1ccc(Oc2ccc(OC(F)(F)F)cc2)cc1`, the minimum inhibitory concentration in assay [1] and in assay [2] was over 50 µM each time.

As to `CCOc1ccc2cc(-c3nn(CC4CCN(C)CC4)c4ncnc(N)c34)ccc2c1`, the minimum inhibitory concentration in assay [1] and in assay [2] was over 50 µM throughout.

With `CC(C)NCC(=O)Nc1cccc(C(=O)Nc2cccc(C(F)(F)F)c2)c1`, the minimum inhibitory concentration in assay [1] and in assay [2] was over 50 µM throughout.

On to `C[C@H]1COc2c(N3CCN(C)CC3)c(F)cc3c(=O)c(C(=O)O)cn1c23`, for which the values for the minimum inhibitory concentration in assay [1] and in assay [2] were 50 µM (≈ 18.1 µg/mL) and 0.78 µM (≈ 0.282 µg/mL), respectively.

Take `Cc1ccc(NC(=O)CC2COc3ccccc3O2)cc1Cl` (stereo unspecified): the minimum inhibitory concentration in assay [1] and in assay [2] was over 50 µM each time.

As for `CC[C@@H]([C@H](C)O)n1ncn(-c2ccc(N3CCN(c4ccc(OC[C@@H]5CO[C@@](Cn6cncn6)(c6ccc(F)cc6F)C5)cc4)CC3)cc2)c1=O`, the minimum inhibitory concentration in assay [1] and in assay [2] was over 50 µM in each case.

With `CNc1nnc(Sc2cnn(-c3ccccc3)c(=O)c2Cl)s1`, the minimum inhibitory concentration in assay [1] and in assay [2] was over 50 µM each time.

With `Nc1ncc(-c2cn[nH]c2)cc1-c1nc2cc(Cl)cnc2[nH]1`, the minimum inhibitory concentration in assay [1] and in assay [2] was over 50 µM each time.

In the case of `CC(C)(C)[C@H]1CC[C@H](CC2=C(O)C(=O)c3ccccc3C2=O)CC1`, the minimum inhibitory concentration in assay [1] and in assay [2] was over 50 µM throughout.

For `CC(=O)N1CCc2cc3nc(C)cc(C)c3cc21`, the minimum inhibitory concentration in assay [1] and in assay [2] was over 50 µM each time.

With `CC1CCCN(C(=O)C(C)Nc2cc(Cl)ccc2N2CCOCC2)C1` (stereo unspecified), the minimum inhibitory concentration in assay [1] and in assay [2] was over 50 µM in each case.

Consider `CN1CCCN(C(c2ccccc2)c2ccc(Cl)cc2)CC1` (stereo unspecified), for which the minimum inhibitory concentration in assay [1] and in assay [2] was over 50 µM throughout.

`COc1ccccc1CNC(=O)c1cc(C2CC2)nc2c1cnn2C(C)C`: the minimum inhibitory concentration in assay [1] and in assay [2] was over 50 µM each time.

As for `Cc1cccc(-c2nc(Nc3ccncn3)c3sccc3n2)n1`, the minimum inhibitory concentration in assay [1] and in assay [2] was over 50 µM throughout.

On to `Cc1cc(C)n2nc(C(=O)Nc3cc(C(F)(F)F)ccc3N3CCOCC3)nc2n1`, for which the minimum inhibitory concentration in assay [1] and in assay [2] was over 50 µM throughout.
